Where a name gives a salt, the structure may show the parent alone.
melting point	SMILES
126 to 129 °C	FC(F)(F)c1cccc(C2=CCN(CCc3cccc(-c4ccccn4)c3)CC2)n1 (as salt: oxalate)
170 to 173 °C	Cc1ccc(-c2cccc(CCN3CC=C(c4cccc(C(F)(F)F)c4)CC3)c2)cn1 (as salt: oxalate)
175 to 177 °C	Fc1cccc(C2=CCN(CCc3cccc(-c4ccccn4)c3)CC2)c1 (as salt: oxalate)
182 to 186 °C	FC(F)(F)c1cccc(C2=CCN(CCc3cccc(-c4ccccn4)c3)CC2)c1 (as salt: oxalate)
205 to 207 °C	FC(F)(F)c1cccc(C2=CCN(CCc3cccc(-c4cnccn4)c3)CC2)c1 (as salt: oxalate) [12]
199 to 201 °C	FC(F)(F)c1cccc(C2=CCN(CCc3cccc(-c4cnccn4)c3)CC2)c1 (as salt: oxalate) [14]
183 to 186 °C	Clc1cccc(C2=CCN(CCc3cccc(-c4ccncc4)c3)CC2)n1 (as salt: oxalate)

Reference: patent US20050004132A1, “Nitrogenous tetrahydropyridyl-alkyl-heterocycles with tnf activity” (priority 2001, published 2005)
